Calls of active or inactive are those of the source. No rule for the calls is given here.
system: Broad 7084-01 inhibitor HTS, set 2; test: single-concentration hits, screen 7084 set 2 (AID 977613);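 also: host cells are infected with parasite promastigotes that become internalized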

Q: How did the active concentration turn out when `OC[C@@H]1[C@@H]2c3ccccc3NC[C@@H]2N1Cc1cccnc1` was run?
A: > 10 µM (inactive)

Q: With `COc1ccccc1CN1[C@@H](CO)[C@@H]2c3ccccc3N(C(=O)c3cccnc3)C[C@@H]21` as the compound, how does the active concentration read?
A: > 10 µM (inactive)

Q: Which active concentration does the source give for `O=C([C@@H]1[C@@H](CO)[C@@H]2Cn3c(ccc(C4=CCCC4)c3=O)[C@H]1N2C(=O)c1ccncc1)N1CCOCC1` here?
A: > 10 µM (inactive)

Q: `O=C(Nc1ccc(F)cc1)N1[C@@H](CO)[C@@H]2c3ccccc3NC[C@@H]21` was tested. Which active concentration did it give?
A: > 10 µM (inactive)

Q: Which active concentration does the source give for `COc1ccc(CN2[C@H](CO)[C@H]3c4ccccc4NC[C@H]32)cc1` here?
A: < 10 µM

Q: How did the active concentration turn out when `O=C(Nc1ccccc1)N1CC(=O)N2[C@@H](CO)[C@@H](c3ccc(C#CC4CCCCC4)cc3)[C@@H]2C1` was run?
A: > 10 µM (inactive)

Q: For `CCNC(=O)Nc1ccc2c(c1)C(=O)N(C)[C@@H]1CC[C@@H](CC(=O)N[C@H](C)c3ccccc3)O[C@H]1CO2`, which active concentration is on record?
A: > 10 µM (inactive)

Q: For `OC[C@@H]1[C@@H]2c3ccccc3NC[C@@H]2N1Cc1ccccc1Cl`, which active concentration is on record?
A: > 10 µM (inactive)

Q: With `O=C(C[C@H]1CC[C@@H]2[C@H](COC[C@H](O)CN2Cc2cc(F)cc(F)c2)O1)NC1CCC1` as the compound, how does the active concentration read?
A: > 10 µM (inactive)

Q: With `COc1ccc(NC(=O)N2CCCCN3[C@@H](CO)[C@H](c4ccc(-c5ccccc5F)cc4)[C@@H]3C2)cc1` as the compound, how does the active concentration read?
A: > 10 µM (inactive)

Q: `O=C(C[C@@H]1CC[C@H]2[C@@H](COC[C@@H](O)CN2C(=O)c2ccc(F)cc2)O1)NCc1cccc(F)c1` was tested. Which active concentration did it give?
A: > 10 µM (inactive)

Q: How did the active concentration turn out when `CCc1cnc(N2[C@H](C#N)[C@@H](c3ccccc3C3=CCCCC3)[C@@H]2CO)s1` was run?
A: > 10 µM (inactive)

Q: `CCC(=O)N1CC2(C1)[C@@H](c1ccc(-c3cccc(C)c3)cc1)[C@@H](CO)N2S(C)(=O)=O` was tested. Which active concentration did it give?
A: > 10 µM (inactive)

Q: How did the active concentration turn out when `CN1C(=O)c2cc(NS(C)(=O)=O)ccc2OC[C@H]2O[C@H](CC(=O)N3CCOCC3)CC[C@@H]21` was run?
A: > 10 µM (inactive)

Q: Which active concentration does the source give for `CCS(=O)(=O)N1CC2(CN(Cc3cc(F)ccc3F)[C@H](CO)c3c2c2ccc(OC)cc2n3C)C1` here?
A: > 10 µM (inactive)

Q: Which active concentration does the source give for `O=C(C[C@H]1CC[C@H]2[C@@H](COC[C@@H](O)CN2CC2CC2)O1)NCc1ccc(Cl)cc1` here?
A: > 10 µM (inactive)

Q: Which active concentration does the source give for `O=C(C1CCOCC1)N1CC(=O)N2[C@@H](CO)[C@H](c3ccc(C#CCc4ccccc4)cc3)[C@@H]2C1` here?
A: > 10 µM (inactive)

Q: For `O=C(C[C@H]1CC[C@@H]2[C@H](COC[C@@H](O)CN2C(=O)C2CC2)O1)NCc1ccncc1`, which active concentration is on record?
A: > 10 µM (inactive)

Q: For `O=C1CN(S(=O)(=O)Cc2ccccc2)C[C@@H]2[C@H](c3ccc(C#Cc4ccccc4)cc3)[C@H](CO)N12`, which active concentration is on record?
A: > 10 µM (inactive)

Q: `O=C(C[C@H]1CC[C@H]2[C@@H](COC[C@H](O)CN2CCC(F)(F)F)O1)NCC1CC1` was tested. Which active concentration did it give?
A: > 10 µM (inactive)

Q: For `O=S(=O)(c1ccc(F)cc1)N1CCCCN2[C@H](CO)[C@H](c3ccc(-c4cncnc4)cc3)[C@H]2C1`, which active concentration is on record?
A: > 10 µM (inactive)

Q: `O=C(C[C@H]1CC[C@H]2[C@@H](COC[C@@H](O)CN2Cc2nccs2)O1)NCc1ccccc1` was tested. Which active concentration did it give?
A: > 10 µM (inactive)

Q: How did the active concentration turn out when `O=C(O)[C@H]1[C@H](CO)[C@H]2Cn3c(ccc(-c4ccccc4F)c3=O)[C@@H]1N2C(=O)c1cccnc1` was run?
A: > 10 µM (inactive)

Q: How did the active concentration turn out when `C/C=C/c1ccc2c(c1)[C@H]1[C@H](CCN1C(=O)Cc1cccnc1)[C@@H](CO)N2C` was run?
A: > 10 µM (inactive)

Q: `COc1ccccc1-c1ccc2n(c1=O)C[C@H]1[C@H](CO)[C@@H](C(=O)NCc3ccccc3Cl)N[C@@H]21` was tested. Which active concentration did it give?
A: > 10 µM (inactive)

Q: `CN(C)C(=O)C[C@@H]1CC[C@@H]2[C@H](COC[C@H](O)CN2CC2CC2)O1` was tested. Which active concentration did it give?
A: > 10 µM (inactive)

Q: How did the active concentration turn out when `O=C(C[C@H]1CC[C@H]2[C@@H](COC[C@H](O)CN2C(=O)c2ccncc2)O1)NCc1ccc(-c2ccccc2)cc1` was run?
A: > 10 µM (inactive)

Q: With `COCC(=O)N1[C@H](C#N)[C@H](c2ccccc2-c2ccccc2F)[C@H]1CO` as the compound, how does the active concentration read?
A: > 10 µM (inactive)

Q: With `CCCC#Cc1ccc([C@@H]2[C@@H](CO)N3CCCCN(CCC)C[C@@H]23)cc1` as the compound, how does the active concentration read?
A: > 10 µM (inactive)

Q: How did the active concentration turn out when `COCC(=O)N1CC2(CCN(Cc3cccnc3)CC2)c2c(n(C)c3cc(OC)ccc23)[C@@H]1CO` was run?
A: > 10 µM (inactive)

Q: `COc1ccccc1-c1ccccc1[C@@H]1[C@@H](C#N)N(C(=O)C2CCOCC2)[C@H]1CO` was tested. Which active concentration did it give?
A: > 10 µM (inactive)

Q: Which active concentration does the source give for `N#C[C@H]1[C@H](c2ccccc2-c2ccc(F)cc2)[C@@H](CO)N1C(=O)Cc1cccnc1` here?
A: > 10 µM (inactive)

Q: Which active concentration does the source give for `O=C(C[C@H]1CC[C@H]2[C@@H](COC[C@@H](O)CN2C(=O)c2ccc3c(c2)OCO3)O1)NC1CCC1` here?
A: > 10 µM (inactive)

Q: How did the active concentration turn out when `Cc1ccccc1-c1ccccc1[C@@H]1[C@H](C#N)N(C(=O)c2ccccc2)[C@H]1CO` was run?
A: > 10 µM (inactive)

Q: How did the active concentration turn out when `N#C[C@H]1[C@H](c2ccccc2-c2ccccc2)[C@@H](CO)N1C(=O)Cc1ccncc1` was run?
A: > 10 µM (inactive)

Q: How did the active concentration turn out when `O=C(Cc1ccccn1)N1CC[C@@H]2[C@H](CO)Nc3ccc(-c4cccc(F)c4)cc3[C@@H]21` was run?
A: > 10 µM (inactive)

Q: With `CCCNC(=O)N1[C@@H]2Cn3c(ccc(-c4ccccc4OC)c3=O)[C@H]1[C@@H](C(=O)NCC)[C@@H]2CO` as the compound, how does the active concentration read?
A: > 10 µM (inactive)

Q: Which active concentration does the source give for `COc1ccc(CN2[C@@H]3CN(C(=O)Nc4ccc(F)cc4)c4ccccc4[C@@H]3[C@@H]2CO)cc1` here?
A: > 10 µM (inactive)

Q: `CC(C)NC(=O)N1[C@H](CO)[C@H](c2ccccc2)C12CN(C(=O)Cc1cccnc1)C2` was tested. Which active concentration did it give?
A: > 10 µM (inactive)

Q: For `N#C[C@@H]1[C@H](c2ccccc2C2=CCCCC2)[C@H](CO)N1C(=O)Nc1ccccc1F`, which active concentration is on record?
A: > 10 µM (inactive)

Q: Which active concentration does the source give for `CN(C)CC(=O)N1[C@@H](CO)[C@@H](c2ccccc2)C12CN(Cc1cc(F)ccc1F)C2` here?
A: > 10 µM (inactive)

Q: `O=C(c1ccccn1)N1CC2(C1)[C@H](c1ccccc1)[C@@H](CO)N2Cc1ccccc1` was tested. Which active concentration did it give?
A: > 10 µM (inactive)

Q: `COc1ccccc1-c1ccccc1[C@H]1[C@@H](C#N)N(C(=O)CN(C)C)[C@@H]1CO` was tested. Which active concentration did it give?
A: > 10 µM (inactive)

Q: For `O=C(C[C@@H]1CC[C@H]2[C@@H](COC[C@@H](O)CN2C(=O)c2ccc3c(c2)OCO3)O1)NC1CCC1`, which active concentration is on record?
A: > 10 µM (inactive)

Q: `CN1CCN(C(=O)C[C@@H]2CC[C@@H]3[C@H](COC[C@@H](O)CN3CC3CC3)O2)CC1` was tested. Which active concentration did it give?
A: > 10 µM (inactive)

Q: Which active concentration does the source give for `O=S(=O)(c1ccccc1F)N1CC[C@@H]2[C@H]1c1cc(-c3ccccc3F)ccc1N[C@@H]2CO` here?
A: > 10 µM (inactive)

Q: `Cc1nn(C)cc1NC(=O)C[C@@H]1CC[C@H]2[C@H](COc3ccc(NC(=O)C4CCOCC4)cc3C(=O)N2C)O1` was tested. Which active concentration did it give?
A: > 10 µM (inactive)

Q: For `CCC(=O)N1CC(=O)N2[C@H](CO)[C@H](c3ccc(-c4ccc(C#N)cc4)cc3)[C@@H]2C1`, which active concentration is on record?
A: > 10 µM (inactive)

Q: How did the active concentration turn out when `O=C([C@@H]1[C@@H](CO)[C@@H]2Cn3c(ccc(C4=CCCCC4)c3=O)[C@H]1N2Cc1nccs1)N1CCCCC1` was run?
A: > 10 µM (inactive)

Q: `C[C@@H](O)C#Cc1ccc([C@@H]2[C@H](CO)N3CCCCN(C(=O)c4ccc5c(c4)OCO5)C[C@@H]23)cc1` was tested. Which active concentration did it give?
A: > 10 µM (inactive)

Q: `CC(C)NC(=O)N1[C@H](CO)[C@H](c2ccccc2-c2ccc(F)cc2)[C@@H]1C#N` was tested. Which active concentration did it give?
A: > 10 µM (inactive)

Q: With `CC(C)NC(=O)N1CC[C@@H]2[C@H]1c1cc(Br)ccc1N(C)[C@H]2CO` as the compound, how does the active concentration read?
A: > 10 µM (inactive)

Q: With `CCCNC(=O)N1CC(=O)N2[C@H](CO)[C@H](c3ccc(C#CCC4CCCC4)cc3)[C@@H]2C1` as the compound, how does the active concentration read?
A: > 10 µM (inactive)

Q: How did the active concentration turn out when `CN1C(=O)c2cc(NC(=O)Cc3cccs3)ccc2OC[C@H]2O[C@H](CC(=O)N[C@@H]3CCN(Cc4ccccc4)C3)CC[C@H]21` was run?
A: > 10 µM (inactive)

Q: Which active concentration does the source give for `C/C=C/c1ccc([C@@H]2[C@@H](CO)N(C(=O)C3CCOCC3)C23CN(C(=O)NC(C)C)C3)cc1` here?
A: > 10 µM (inactive)

Q: `CC(=O)N1[C@H](CO)[C@@H](c2ccccc2)C12CN(C(=O)Cc1ccccc1)C2` was tested. Which active concentration did it give?
A: > 10 µM (inactive)

Q: With `O=C(C[C@@H]1CC[C@H]2[C@@H](COC[C@@H](O)CN2S(=O)(=O)c2cccc(Cl)c2)O1)Nc1ccc(-c2ccccc2)cc1` as the compound, how does the active concentration read?
A: > 10 µM (inactive)

Q: With `OC[C@@H]1[C@@H]2c3ccccc3NC[C@@H]2N1CC1CCOCC1` as the compound, how does the active concentration read?
A: > 10 µM (inactive)

Q: `N#C[C@H]1[C@H](c2ccccc2C2=CCCCC2)[C@@H](CO)N1C(=O)C1CCOCC1` was tested. Which active concentration did it give?
A: > 10 µM (inactive)

Q: For `N#C[C@@H]1[C@@H](c2ccccc2-c2ccc(F)cc2)[C@H](CO)N1C(=O)Cc1cccnc1`, which active concentration is on record?
A: > 10 µM (inactive)

Q: How did the active concentration turn out when `CCS(=O)(=O)N1[C@H](CO)[C@@H](c2ccccc2)C12CN(C(=O)C1CCCCC1)C2` was run?
A: > 10 µM (inactive)

Q: `COc1ccccc1S(=O)(=O)N1CC[C@@H]2[C@H]1c1cc(-c3ccc(C#N)cc3)ccc1N[C@@H]2CO` was tested. Which active concentration did it give?
A: > 10 µM (inactive)

Q: For `COc1ccc2c3c([nH]c2c1)[C@H](CO)N(Cc1ccc(F)cc1)CC31CCN(C)CC1`, which active concentration is on record?
A: > 10 µM (inactive)

Q: How did the active concentration turn out when `CCS(=O)(=O)N1CC2(C1)[C@@H](c1ccccc1)[C@@H](CO)N2C(=O)c1ccccc1` was run?
A: > 10 µM (inactive)

Q: With `O=C(c1cccnc1)N1C[C@H]2[C@@H](c3ccccc31)[C@H](CO)N2Cc1ccc2c(c1)OCO2` as the compound, how does the active concentration read?
A: > 10 µM (inactive)

Q: For `COc1ccc(-c2ccc([C@@H]3[C@H]4CN(C(=O)Cc5ccncc5)CCCCN4[C@H]3CO)cc2)cc1`, which active concentration is on record?
A: > 10 µM (inactive)

Q: For `O=C(C[C@H]1CC[C@@H]2[C@H](COC[C@@H](O)CN2Cc2cc(F)ccc2F)O1)NCc1ccc(F)cc1`, which active concentration is on record?
A: > 10 µM (inactive)

Q: How did the active concentration turn out when `O=C(C[C@H]1CC[C@H]2[C@@H](COC[C@@H](O)CN2S(=O)(=O)c2cccc(F)c2)O1)Nc1ccc(-c2ccccc2)cc1` was run?
A: > 10 µM (inactive)

Q: `O=C(CC1CC1)N1[C@@H]2CN(S(=O)(=O)c3ccccc3F)c3ccccc3[C@@H]2[C@@H]1CO` was tested. Which active concentration did it give?
A: > 10 µM (inactive)

Q: With `CC(C)C#Cc1ccc([C@H]2[C@H](CO)N3C(=O)CN(C(=O)Cc4ccccc4)C[C@@H]23)cc1` as the compound, how does the active concentration read?
A: > 10 µM (inactive)

Q: `C[C@H](NC(=O)[C@H]1[C@H](CO)[C@H]2Cn3c(ccc(-c4ccncc4)c3=O)[C@H]2N1C)c1ccccc1` was tested. Which active concentration did it give?
A: > 10 µM (inactive)

From PubChem BioAssay AID977613 (Broad Institute, 2014)
